The values below are quoted from earlier work in PMC12256174, “Next-Generation Oral Delivery Systems: Phytosomal Hinokitiol Tablets via REGEMAT 3D Bioprinter-Based 3D Printing for Enhanced Bioavailability” (Scientifica, 2025).

≈ marks a conversion by molar mass, not a printed value.

For the compound `CC(C)c1cccc(=O)c(O)c1` [Hinokitiol], the aqueous solubility was 1120 ± 20 µg/mL (≈ 6.82 mM).
